Columns and labels:
Experiment in all cases: Test F preemergence/postemergence greenhouse plant response rating 0 to 100
blackgrass = assay type: in vivo, Alopecurus myosuroides; conditions: POSTEMERGENCE, 0 to 100 scale; for Blackgrass (1) plant response rating: stage (1) two to three leaves; for Blackgrass (2) plant response rating: stage (2) approximately four leaves or initial tillering
From the text: (§1) Compounds evaluated in this test were formulated in a non-phytoxic solvent and applied to the soil surface before plant seedlings emerged (preemergence application) and to plants that were in the one-to-four leaf stage (postemergence application). A sandy loam soil was used for the preemergence test while a mixture of sandy loam soil and greenhouse potting mix in a 60:40 ratio was used for the postemergence test. Test compounds were applied within approximately one day after planting seeds for the preemergence test. Plantings of these crops and weed species were adjusted to produce plants of appropriate size for the postemergence test. All plant species were grown using normal greenhouse practices. Crop and weed species include winter barley (Hordeum vulgare cv. ‘Igri’), blackgrass (Alopecurus myosuroides), chickweed (Stellaria media), downy brome (Bromus tectorum), field violet (Viola arvensis), galium (Galium aparine), green foxtail (Setaria viridis), kochia (Kochia scoparia), lambsquarters (Chenopodium album), speedwell (Veronica persica), rape (Brassica napus), ryegrass (Lolium multiflorum), sugar beet (Beta vulgaris cv. ‘USl’), sunflower (Helianthus annuus cv. ‘Russian Giant’), spring wheat (Triticum aestivum cv. ‘ERA’), winter wheat (Triticum aestivum cv. ‘Talent’), wild buckwheat (Polygonum convolvulus), wild mustard (Sinapis arvensis), wild oat (Avena fatua), and wild radish (Raphanus raphanistrum). Blackgrass, galium and wild oat were treated at two growth stages. […] Treated plants and untreated controls were maintained in a greenhouse for approximately 21 to 28 days, after which all treated plants were compared to untreated controls and visually evaluated. […] A dash response (-) means no test result.

downy brome = assay type: in vivo, Bromus tectorum; conditions: POSTEMERGENCE, 0 to 100 scale
From the text: as §1

galium = assay type: in vivo, Galium aparine; conditions: POSTEMERGENCE, 0 to 100 scale; for Galium (1) plant response rating: stage (1) two to three leaves; for Galium (2) plant response rating: stage (2) approximately four leaves or initial tillering
From the text: as §1

lambsquarters = assay type: in vivo, Chenopodium album; conditions: POSTEMERGENCE, 0 to 100 scale
From the text: as §1

speedwell = assay type: in vivo, Veronica persica; conditions: POSTEMERGENCE, 0 to 100 scale
From the text: as §1

rape = assay type: in vivo, Brassica napus; conditions: POSTEMERGENCE, 0 to 100 scale
From the text: as §1

ryegrass = assay type: in vivo, Lolium multiflorum; conditions: POSTEMERGENCE, 0 to 100 scale
From the text: as §1

sugar beet = assay type: in vivo, Beta vulgaris cv. ‘USl’; conditions: POSTEMERGENCE, 0 to 100 scale
From the text: as §1

sunflower = assay type: in vivo, Helianthus annuus cv. ‘Russian Giant’; conditions: POSTEMERGENCE, 0 to 100 scale
From the text: as §1

spring wheat = assay type: in vivo, Triticum aestivum cv. ‘ERA’; conditions: POSTEMERGENCE, 0 to 100 scale
From the text: as §1

winter wheat = assay type: in vivo, Triticum aestivum cv. ‘Talent’; conditions: POSTEMERGENCE, 0 to 100 scale
From the text: as §1

wild buckwheat = assay type: in vivo, Polygonum convolvulus; conditions: POSTEMERGENCE, 0 to 100 scale
From the text: as §1

wild oat = assay type: in vivo, Avena fatua; conditions: POSTEMERGENCE, 0 to 100 scale; for Wild oat (1) plant response rating: stage (1) two to three leaves; for Wild oat (2) plant response rating: stage (2) approximately four leaves or initial tillering
From the text: as §1

## CCOC(=O)COc1cc(-c2nn3c(c2Cl)CCCC3)c(F)cc1Cl [Compound 42]
blackgrass; Rate 2 g/ha
  Blackgrass (1) plant response rating: 0
  Blackgrass (2) plant response rating: 0
blackgrass; Rate 4 g/ha
  Blackgrass (1) plant response rating: 0
  Blackgrass (2) plant response rating: 0
blackgrass; Rate 8 g/ha
  Blackgrass (1) plant response rating: 0
  Blackgrass (2) plant response rating: 0
blackgrass; Rate 16 g/ha
  Blackgrass (1) plant response rating: 0
  Blackgrass (2) plant response rating: 0
blackgrass; Rate 32 g/ha
  Blackgrass (1) plant response rating: 0
  Blackgrass (2) plant response rating: 0
Downy brome; Rate 2 g/ha
  Downy brome plant response rating: 0
Downy brome; Rate 4 g/ha
  Downy brome plant response rating: 0
Downy brome; Rate 8 g/ha
  Downy brome plant response rating: 0
Downy brome; Rate 16 g/ha
  Downy brome plant response rating: 0
Downy brome; Rate 32 g/ha
  Downy brome plant response rating: 0
galium; Rate 2 g/ha
  Galium (1) plant response rating: 0
  Galium (2) plant response rating: 0
galium; Rate 4 g/ha
  Galium (1) plant response rating: 0
  Galium (2) plant response rating: 0
galium; Rate 8 g/ha
  Galium (1) plant response rating: 40
  Galium (2) plant response rating: 30
galium; Rate 16 g/ha
  Galium (1) plant response rating: 40
  Galium (2) plant response rating: 60
galium; Rate 32 g/ha
  Galium (1) plant response rating: 60
  Galium (2) plant response rating: 60
lambsquarters; Rate 2 g/ha
  Lambsquarters plant response rating: 55
lambsquarters; Rate 4 g/ha
  Lambsquarters plant response rating: 60
lambsquarters; Rate 8 g/ha
  Lambsquarters plant response rating: 60
lambsquarters; Rate 16 g/ha
  Lambsquarters plant response rating: 100
lambsquarters; Rate 32 g/ha
  Lambsquarters plant response rating: 100
speedwell; Rate 2 g/ha
  Persn Speedwell plant response rating: 100
speedwell; Rate 4 g/ha
  Persn Speedwell plant response rating: 100
speedwell; Rate 8 g/ha
  Persn Speedwell plant response rating: 100
speedwell; Rate 16 g/ha
  Persn Speedwell plant response rating: 100
speedwell; Rate 32 g/ha
  Persn Speedwell plant response rating: 100
rape; Rate 2 g/ha
  Rape plant response rating: 0
rape; Rate 4 g/ha
  Rape plant response rating: 20
rape; Rate 8 g/ha
  Rape plant response rating: 40
rape; Rate 16 g/ha
  Rape plant response rating: 70
rape; Rate 32 g/ha
  Rape plant response rating: 100
ryegrass; Rate 2 g/ha
  Ryegrass plant response rating: 0
ryegrass; Rate 4 g/ha
  Ryegrass plant response rating: 0
ryegrass; Rate 8 g/ha
  Ryegrass plant response rating: 0
ryegrass; Rate 16 g/ha
  Ryegrass plant response rating: 0
ryegrass; Rate 32 g/ha
  Ryegrass plant response rating: 30
Sugar beet; Rate 2 g/ha
  Sugar beet plant response rating: 100
Sugar beet; Rate 8 g/ha
  Sugar beet plant response rating: 100
Sugar beet; Rate 16 g/ha
  Sugar beet plant response rating: 100
Sugar beet; Rate 32 g/ha
  Sugar beet plant response rating: 100
sunflower; Rate 2 g/ha
  Sunflower plant response rating: 0
sunflower; Rate 4 g/ha
  Sunflower plant response rating: 20
sunflower; Rate 8 g/ha
  Sunflower plant response rating: 30
sunflower; Rate 16 g/ha
  Sunflower plant response rating: 60
sunflower; Rate 32 g/ha
  Sunflower plant response rating: 100
Spring wheat; Rate 2 g/ha
  Wheat (Spring) plant response rating: 0
Spring wheat; Rate 4 g/ha
  Wheat (Spring) plant response rating: 0
Spring wheat; Rate 8 g/ha
  Wheat (Spring) plant response rating: 0
Spring wheat; Rate 16 g/ha
  Wheat (Spring) plant response rating: 10
Spring wheat; Rate 32 g/ha
  Wheat (Spring) plant response rating: 10
Winter wheat; Rate 2 g/ha
  Wheat (Winter) plant response rating: 0
Winter wheat; Rate 4 g/ha
  Wheat (Winter) plant response rating: 0
Winter wheat; Rate 8 g/ha
  Wheat (Winter) plant response rating: 10
Winter wheat; Rate 16 g/ha
  Wheat (Winter) plant response rating: 10
Winter wheat; Rate 32 g/ha
  Wheat (Winter) plant response rating: 10
Wild buckwheat; Rate 2 g/ha
  Wild buckwheat plant response rating: 60
Wild buckwheat; Rate 4 g/ha
  Wild buckwheat plant response rating: 60
Wild buckwheat; Rate 8 g/ha
  Wild buckwheat plant response rating: 100
Wild buckwheat; Rate 16 g/ha
  Wild buckwheat plant response rating: 100
Wild oat; Rate 2 g/ha
  Wild oat (1) plant response rating: 0
  Wild oat (2) plant response rating: 0
Wild oat; Rate 4 g/ha
  Wild oat (1) plant response rating: 0
  Wild oat (2) plant response rating: 0
Wild oat; Rate 8 g/ha
  Wild oat (1) plant response rating: 0
  Wild oat (2) plant response rating: 0
Wild oat; Rate 16 g/ha
  Wild oat (1) plant response rating: 0
  Wild oat (2) plant response rating: 0
Wild oat; Rate 32 g/ha
  Wild oat (1) plant response rating: 10
  Wild oat (2) plant response rating: 10

Source: patent publication US6358885B1, “Substituted phenylheterocyclic herbicides” (Mississippi State University, priority 1992, dated 2002)
